Laboratory results from the supplement of paper PMC12463676, “Small-molecule dissolution of stress granules by redox modulation benefits ALS models” (Nature Chemical Biology, 2025).

Legend:
potassium arsenate = compound: O=[As]([O-])(O)O.[K+] [potassium arsenate]; assay: thermal stability z-score vs DMSO; higher = more thermally stabilized by treatment; conditions: HeLa; arsenate concentration 1 mM
Protocol: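 Cellular thermal proteome profiling in HeLa cells treated with 1 mM arsenate for 1 h (DMSO pretreatment), heated to ten temperatures (37-66.3 °C). Soluble protein was quantified by TMT mass spectrometry relative to DMSO controls; the thermal stability score was transformed to a z-score; mean of n = 3 experiments.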

lipoamide = compound: NC(=O)CCCCC1CCSS1 [lipoamide]; assay: as above; conditions: HeLa, lipoamide concentration 100 µM
Protocol: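 Cellular thermal proteome profiling in HeLa cells. Cells were treated with 100 µM lipoamide for 1 h, with or without 1 mM arsenate for a further 1 h, then heated to ten temperatures (37-66.3 °C), and soluble protein was quantified by TMT mass spectrometry relative to 0.1% DMSO controls. The thermal stability score (sum of log2 fold changes minus the abundance score) was transformed to a z-score; mean of n = 3 experiments.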

[1] = arsenate co-treatment: 1 mM arsenate 1 h
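Further: each temperature applied for 3 min, abundance score taken as mean log2 fold change at the two lowest temperatures, z-score obtained by mean subtraction and division by SD.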

UniProt O60906, sequence (O60906 whole entry): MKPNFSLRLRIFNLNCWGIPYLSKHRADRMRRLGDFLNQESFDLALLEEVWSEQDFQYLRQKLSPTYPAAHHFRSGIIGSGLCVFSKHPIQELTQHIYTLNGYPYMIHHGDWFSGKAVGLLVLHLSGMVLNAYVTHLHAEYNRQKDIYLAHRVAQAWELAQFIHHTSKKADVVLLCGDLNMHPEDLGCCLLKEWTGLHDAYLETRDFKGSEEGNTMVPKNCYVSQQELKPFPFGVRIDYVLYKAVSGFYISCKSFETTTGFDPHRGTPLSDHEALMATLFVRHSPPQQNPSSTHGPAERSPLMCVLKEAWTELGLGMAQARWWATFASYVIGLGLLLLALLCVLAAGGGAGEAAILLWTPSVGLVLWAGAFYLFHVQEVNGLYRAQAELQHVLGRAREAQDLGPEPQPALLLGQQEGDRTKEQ
UniProt Q9BVK2, sequence (Q9BVK2 whole entry): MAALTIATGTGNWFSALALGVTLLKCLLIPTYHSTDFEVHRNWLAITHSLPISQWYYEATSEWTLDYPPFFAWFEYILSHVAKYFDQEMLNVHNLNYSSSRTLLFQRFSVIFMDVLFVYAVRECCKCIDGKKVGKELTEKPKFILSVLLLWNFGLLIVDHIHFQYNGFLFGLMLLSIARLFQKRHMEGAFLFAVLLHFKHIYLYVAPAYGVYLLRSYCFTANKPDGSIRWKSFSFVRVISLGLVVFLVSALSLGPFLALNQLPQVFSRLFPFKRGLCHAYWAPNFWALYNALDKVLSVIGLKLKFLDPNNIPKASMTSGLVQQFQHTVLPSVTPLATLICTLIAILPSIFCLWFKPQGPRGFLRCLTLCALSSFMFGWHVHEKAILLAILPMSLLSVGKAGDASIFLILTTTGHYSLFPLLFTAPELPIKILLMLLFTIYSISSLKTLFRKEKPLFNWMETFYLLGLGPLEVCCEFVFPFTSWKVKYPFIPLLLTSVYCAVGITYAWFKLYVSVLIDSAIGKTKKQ
UniProt Q9NZ32, sequence (Q9NZ32 whole entry): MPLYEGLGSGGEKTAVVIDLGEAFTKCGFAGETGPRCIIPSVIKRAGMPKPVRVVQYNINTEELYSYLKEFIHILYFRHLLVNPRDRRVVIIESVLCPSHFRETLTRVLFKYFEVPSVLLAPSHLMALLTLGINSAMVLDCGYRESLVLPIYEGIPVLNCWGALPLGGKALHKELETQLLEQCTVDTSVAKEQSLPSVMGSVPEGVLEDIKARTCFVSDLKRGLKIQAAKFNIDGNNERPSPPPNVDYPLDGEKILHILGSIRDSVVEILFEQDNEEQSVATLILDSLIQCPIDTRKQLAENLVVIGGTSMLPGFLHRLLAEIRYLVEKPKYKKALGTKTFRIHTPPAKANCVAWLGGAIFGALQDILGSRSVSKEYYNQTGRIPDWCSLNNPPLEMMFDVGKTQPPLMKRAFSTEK
UniProt P51531, sequence (P51531 whole entry): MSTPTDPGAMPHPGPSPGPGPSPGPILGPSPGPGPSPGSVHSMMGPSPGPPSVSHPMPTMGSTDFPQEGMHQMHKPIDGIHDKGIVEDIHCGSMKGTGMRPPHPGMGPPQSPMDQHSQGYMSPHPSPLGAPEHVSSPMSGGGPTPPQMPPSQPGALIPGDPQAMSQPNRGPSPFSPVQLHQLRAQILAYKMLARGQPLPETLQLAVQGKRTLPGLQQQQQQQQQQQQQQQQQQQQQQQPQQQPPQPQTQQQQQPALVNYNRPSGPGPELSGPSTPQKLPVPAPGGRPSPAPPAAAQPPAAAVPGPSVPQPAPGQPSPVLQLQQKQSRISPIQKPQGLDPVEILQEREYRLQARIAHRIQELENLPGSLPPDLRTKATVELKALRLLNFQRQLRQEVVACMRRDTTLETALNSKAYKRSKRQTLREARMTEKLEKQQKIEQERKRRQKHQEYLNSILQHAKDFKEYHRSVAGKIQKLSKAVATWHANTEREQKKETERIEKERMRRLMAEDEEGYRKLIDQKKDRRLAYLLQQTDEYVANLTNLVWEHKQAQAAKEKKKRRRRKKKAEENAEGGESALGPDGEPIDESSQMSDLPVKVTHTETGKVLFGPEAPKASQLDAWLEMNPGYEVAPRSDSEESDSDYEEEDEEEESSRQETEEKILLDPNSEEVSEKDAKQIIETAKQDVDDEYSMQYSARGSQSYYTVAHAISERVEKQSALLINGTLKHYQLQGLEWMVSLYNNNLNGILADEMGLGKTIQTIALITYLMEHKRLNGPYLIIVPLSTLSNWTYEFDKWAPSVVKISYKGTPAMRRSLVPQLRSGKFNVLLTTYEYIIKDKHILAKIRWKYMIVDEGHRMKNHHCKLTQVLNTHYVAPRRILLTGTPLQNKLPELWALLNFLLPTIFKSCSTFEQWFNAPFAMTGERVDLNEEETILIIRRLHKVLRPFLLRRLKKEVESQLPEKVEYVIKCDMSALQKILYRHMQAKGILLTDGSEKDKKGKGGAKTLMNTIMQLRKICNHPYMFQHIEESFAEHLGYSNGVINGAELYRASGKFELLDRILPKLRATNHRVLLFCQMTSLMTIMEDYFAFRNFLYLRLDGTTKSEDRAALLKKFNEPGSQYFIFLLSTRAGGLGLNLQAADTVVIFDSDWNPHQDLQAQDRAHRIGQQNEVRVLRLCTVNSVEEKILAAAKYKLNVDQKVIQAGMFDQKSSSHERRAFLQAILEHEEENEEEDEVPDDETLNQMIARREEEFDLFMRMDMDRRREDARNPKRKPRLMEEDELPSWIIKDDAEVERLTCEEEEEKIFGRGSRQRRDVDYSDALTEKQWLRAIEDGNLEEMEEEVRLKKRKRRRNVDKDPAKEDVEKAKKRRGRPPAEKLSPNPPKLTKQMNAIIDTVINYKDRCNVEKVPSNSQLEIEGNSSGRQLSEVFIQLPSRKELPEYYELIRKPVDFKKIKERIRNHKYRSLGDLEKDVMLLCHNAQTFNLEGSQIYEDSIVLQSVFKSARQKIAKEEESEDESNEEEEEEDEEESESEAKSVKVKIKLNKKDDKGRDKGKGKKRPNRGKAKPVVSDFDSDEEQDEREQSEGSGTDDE
UniProt Q9BZF9, sequence (Q9BZF9 whole entry): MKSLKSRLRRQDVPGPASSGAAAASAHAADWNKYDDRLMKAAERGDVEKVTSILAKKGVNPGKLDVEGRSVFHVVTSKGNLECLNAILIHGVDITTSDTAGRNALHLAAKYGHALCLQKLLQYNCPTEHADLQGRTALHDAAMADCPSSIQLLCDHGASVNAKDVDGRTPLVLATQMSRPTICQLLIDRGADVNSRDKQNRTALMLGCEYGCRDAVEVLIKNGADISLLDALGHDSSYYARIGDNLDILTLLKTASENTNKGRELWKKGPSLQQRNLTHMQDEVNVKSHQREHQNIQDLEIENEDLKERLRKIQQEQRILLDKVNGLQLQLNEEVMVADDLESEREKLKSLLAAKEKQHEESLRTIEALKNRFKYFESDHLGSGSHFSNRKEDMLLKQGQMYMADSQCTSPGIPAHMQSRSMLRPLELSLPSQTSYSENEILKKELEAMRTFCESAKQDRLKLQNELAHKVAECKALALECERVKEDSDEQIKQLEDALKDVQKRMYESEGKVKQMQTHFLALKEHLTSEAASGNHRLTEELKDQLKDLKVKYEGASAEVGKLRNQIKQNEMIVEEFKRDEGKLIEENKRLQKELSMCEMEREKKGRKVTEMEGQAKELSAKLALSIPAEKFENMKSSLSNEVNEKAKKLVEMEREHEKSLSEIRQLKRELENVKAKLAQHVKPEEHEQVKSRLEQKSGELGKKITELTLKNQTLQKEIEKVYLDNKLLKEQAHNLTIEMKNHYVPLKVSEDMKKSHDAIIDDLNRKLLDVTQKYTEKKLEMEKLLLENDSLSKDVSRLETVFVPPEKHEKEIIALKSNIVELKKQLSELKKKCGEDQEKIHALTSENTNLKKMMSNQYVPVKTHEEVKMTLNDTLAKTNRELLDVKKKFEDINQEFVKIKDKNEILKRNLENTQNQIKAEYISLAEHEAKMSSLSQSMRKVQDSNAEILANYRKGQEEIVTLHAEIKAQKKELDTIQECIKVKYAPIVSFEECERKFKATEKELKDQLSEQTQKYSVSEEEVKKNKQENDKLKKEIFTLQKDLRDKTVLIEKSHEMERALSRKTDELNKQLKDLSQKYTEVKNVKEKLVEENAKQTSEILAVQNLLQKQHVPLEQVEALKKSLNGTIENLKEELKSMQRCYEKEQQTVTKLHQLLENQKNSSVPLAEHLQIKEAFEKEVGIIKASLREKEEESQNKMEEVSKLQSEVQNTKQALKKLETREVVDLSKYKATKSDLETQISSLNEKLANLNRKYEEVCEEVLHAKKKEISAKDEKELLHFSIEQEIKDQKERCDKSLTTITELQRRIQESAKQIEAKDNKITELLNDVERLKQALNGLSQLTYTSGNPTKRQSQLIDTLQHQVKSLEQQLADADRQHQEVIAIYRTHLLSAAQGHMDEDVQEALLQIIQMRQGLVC
UniProt Q53LP3, sequence (Q53LP3 whole entry): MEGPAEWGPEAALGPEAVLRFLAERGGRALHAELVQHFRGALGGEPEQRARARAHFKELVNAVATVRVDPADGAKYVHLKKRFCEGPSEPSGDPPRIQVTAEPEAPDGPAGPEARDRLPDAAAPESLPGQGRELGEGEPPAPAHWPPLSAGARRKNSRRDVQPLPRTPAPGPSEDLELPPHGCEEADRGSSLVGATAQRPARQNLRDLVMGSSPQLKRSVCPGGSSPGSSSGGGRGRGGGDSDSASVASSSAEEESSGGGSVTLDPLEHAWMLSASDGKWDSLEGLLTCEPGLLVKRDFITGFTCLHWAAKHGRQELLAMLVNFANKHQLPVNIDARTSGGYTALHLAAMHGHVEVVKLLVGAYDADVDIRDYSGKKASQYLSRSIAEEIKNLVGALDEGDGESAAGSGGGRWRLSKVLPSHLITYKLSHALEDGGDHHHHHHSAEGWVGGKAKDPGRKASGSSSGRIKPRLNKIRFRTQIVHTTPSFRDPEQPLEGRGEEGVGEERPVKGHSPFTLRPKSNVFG
UniProt P61916, sequence (P61916 whole entry): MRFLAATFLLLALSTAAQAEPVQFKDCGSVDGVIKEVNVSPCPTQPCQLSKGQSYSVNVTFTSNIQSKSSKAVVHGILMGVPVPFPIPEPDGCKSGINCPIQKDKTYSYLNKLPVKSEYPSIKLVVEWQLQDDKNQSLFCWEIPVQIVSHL

Target CECR5 (UniProt Q9BXW7) has a thermal stability z-score (potassium arsenate) of 0.99, a thermal stability z-score (lipoamide; [1]) of -0.169 and a thermal stability z-score (lipoamide; arsenate co-treatment: none) of 0.0959.
PSMD9 (UniProt O00233) was tested, and the thermal stability z-score (potassium arsenate) was -0.281, the thermal stability z-score (lipoamide; [1]) was -0.33 and the thermal stability z-score (lipoamide; arsenate co-treatment: none) was 0.295.
In the case of ACTR10 (UniProt Q9NZ32), the thermal stability z-score (potassium arsenate) is reported as -0.312, the thermal stability z-score (lipoamide; [1]) is reported as -0.106 and the thermal stability z-score (lipoamide; arsenate co-treatment: none) is reported as 0.0788.
For POMK (UniProt Q9H5K3), the thermal stability z-score (potassium arsenate) was -0.285, the thermal stability z-score (lipoamide; [1]) was 0.213 and the thermal stability z-score (lipoamide; arsenate co-treatment: none) was -0.243.
Work on DPM1 (UniProt O60762) yielded a thermal stability z-score (potassium arsenate) of 0.383, a thermal stability z-score (lipoamide; [1]) of 0.673 and a thermal stability z-score (lipoamide; arsenate co-treatment: none) of 0.429.
Work on SP100 (UniProt P23497) yielded a thermal stability z-score (potassium arsenate) of 4.5, a thermal stability z-score (lipoamide; [1]) of 3.43 and a thermal stability z-score (lipoamide; arsenate co-treatment: none) of 0.96.
In the case of PPP1R11 (UniProt O60927), the thermal stability z-score (potassium arsenate) is reported as -0.187, the thermal stability z-score (lipoamide; [1]) is reported as 0.0148 and the thermal stability z-score (lipoamide; arsenate co-treatment: none) is reported as -0.832.
With SOWAHC (UniProt Q53LP3) the thermal stability z-score (potassium arsenate) was 0.0878, the thermal stability z-score (lipoamide; [1]) was 0.277 and the thermal stability z-score (lipoamide; arsenate co-treatment: none) was 0.343.
With ELP2 (UniProt Q6IA86) the thermal stability z-score (potassium arsenate) was -0.24, the thermal stability z-score (lipoamide; [1]) was 0.0198 and the thermal stability z-score (lipoamide; arsenate co-treatment: none) was -0.186.
For TMEM223 (UniProt A0PJW6), the thermal stability z-score (potassium arsenate) was 1.09, the thermal stability z-score (lipoamide; [1]) was -0.653 and the thermal stability z-score (lipoamide; arsenate co-treatment: none) was 0.466.
SIAE (UniProt Q9HAT2) showed a thermal stability z-score (potassium arsenate) of 0.741, a thermal stability z-score (lipoamide; [1]) of 0.527 and a thermal stability z-score (lipoamide; arsenate co-treatment: none) of 0.537.
With ARRB1 (UniProt P49407) the thermal stability z-score (potassium arsenate) was 0.262, the thermal stability z-score (lipoamide; [1]) was 0.197 and the thermal stability z-score (lipoamide; arsenate co-treatment: none) was 0.543.
Work on PRTFDC1 (UniProt Q9NRG1) yielded a thermal stability z-score (potassium arsenate) of -0.386, a thermal stability z-score (lipoamide; [1]) of 0.628 and a thermal stability z-score (lipoamide; arsenate co-treatment: none) of 0.169.
MADD (UniProt Q8WXG6) showed a thermal stability z-score (potassium arsenate) of 1.3, a thermal stability z-score (lipoamide; [1]) of 0.198 and a thermal stability z-score (lipoamide; arsenate co-treatment: none) of 1.4.
MRPL16 (UniProt Q9NX20) showed a thermal stability z-score (potassium arsenate) of -0.974, a thermal stability z-score (lipoamide; [1]) of -0.269 and a thermal stability z-score (lipoamide; arsenate co-treatment: none) of -0.373.
With MECR (UniProt Q9BV79) the thermal stability z-score (potassium arsenate) was 0.152, the thermal stability z-score (lipoamide; [1]) was 0.217 and the thermal stability z-score (lipoamide; arsenate co-treatment: none) was -0.251.
ALDH18A1 (UniProt P54886) was tested, and the thermal stability z-score (potassium arsenate) was -1.34, the thermal stability z-score (lipoamide; [1]) was -0.0576 and the thermal stability z-score (lipoamide; arsenate co-treatment: none) was 0.0663.
Work on ALG8 (UniProt Q9BVK2) yielded a thermal stability z-score (potassium arsenate) of 0.491, a thermal stability z-score (lipoamide; [1]) of 0.425 and a thermal stability z-score (lipoamide; arsenate co-treatment: none) of -0.262.
In the case of ADCY9 (UniProt O60503), the thermal stability z-score (potassium arsenate) is reported as 0.26, the thermal stability z-score (lipoamide; [1]) is reported as 0.368 and the thermal stability z-score (lipoamide; arsenate co-treatment: none) is reported as 0.853.
For ANO6 (UniProt Q4KMQ2), the thermal stability z-score (potassium arsenate) was -0.286, the thermal stability z-score (lipoamide; [1]) was -0.102 and the thermal stability z-score (lipoamide; arsenate co-treatment: none) was -0.0242.
For EXOC6 (UniProt Q8TAG9), the thermal stability z-score (potassium arsenate) was -0.201, the thermal stability z-score (lipoamide; [1]) was -0.242 and the thermal stability z-score (lipoamide; arsenate co-treatment: none) was -0.374.
Work on CCDC124 (UniProt Q96CT7) yielded a thermal stability z-score (potassium arsenate) of -0.605, a thermal stability z-score (lipoamide; [1]) of 0.0112 and a thermal stability z-score (lipoamide; arsenate co-treatment: none) of -0.0241.
For SCRN3 (UniProt Q0VDG4), the thermal stability z-score (potassium arsenate) was -0.0506, the thermal stability z-score (lipoamide; [1]) was -0.445 and the thermal stability z-score (lipoamide; arsenate co-treatment: none) was -0.169.
MARK2 (UniProt Q7KZI7) showed a thermal stability z-score (potassium arsenate) of 0.0503, a thermal stability z-score (lipoamide; [1]) of -0.0322 and a thermal stability z-score (lipoamide; arsenate co-treatment: none) of 0.0698.
Target TRMT1L (UniProt Q7Z2T5) has a thermal stability z-score (potassium arsenate) of -1.26, a thermal stability z-score (lipoamide; [1]) of 0.385 and a thermal stability z-score (lipoamide; arsenate co-treatment: none) of 0.0926.
For NPC2 (UniProt P61916), the thermal stability z-score (potassium arsenate) was -0.391, the thermal stability z-score (lipoamide; [1]) was 0.0993 and the thermal stability z-score (lipoamide; arsenate co-treatment: none) was 0.738.
SRPK2 (UniProt P78362) gave a thermal stability z-score (potassium arsenate) of 0.168, a thermal stability z-score (lipoamide; [1]) of 0.467 and a thermal stability z-score (lipoamide; arsenate co-treatment: none) of -0.365.
DHX9 (UniProt Q08211) gave a thermal stability z-score (potassium arsenate) of -1.4, a thermal stability z-score (lipoamide; [1]) of 0.398 and a thermal stability z-score (lipoamide; arsenate co-treatment: none) of 1.65.
Work on APOB (UniProt P04114) yielded a thermal stability z-score (potassium arsenate) of -0.328, a thermal stability z-score (lipoamide; [1]) of -0.228 and a thermal stability z-score (lipoamide; arsenate co-treatment: none) of 0.0547.
TSR1 (UniProt Q2NL82) was tested, and the thermal stability z-score (potassium arsenate) was 0.334, the thermal stability z-score (lipoamide; [1]) was -0.39 and the thermal stability z-score (lipoamide; arsenate co-treatment: none) was 0.00573.
MCM3 (UniProt P25205) was tested, and the thermal stability z-score (potassium arsenate) was 2.44, the thermal stability z-score (lipoamide; [1]) was -0.878 and the thermal stability z-score (lipoamide; arsenate co-treatment: none) was 0.412.
Work on SMPD2 (UniProt O60906) yielded a thermal stability z-score (potassium arsenate) of -0.382, a thermal stability z-score (lipoamide; [1]) of -0.297 and a thermal stability z-score (lipoamide; arsenate co-treatment: none) of -0.186.
SRSF4 (UniProt Q08170) was tested, and the thermal stability z-score (potassium arsenate) was -0.0178, the thermal stability z-score (lipoamide; [1]) was 1.95 and the thermal stability z-score (lipoamide; arsenate co-treatment: none) was 1.28.
Work on PFKP (UniProt Q01813) yielded a thermal stability z-score (potassium arsenate) of 0.0448, a thermal stability z-score (lipoamide; [1]) of 0.365 and a thermal stability z-score (lipoamide; arsenate co-treatment: none) of 0.542.
For ZNF622 (UniProt Q969S3), the thermal stability z-score (potassium arsenate) was 1.39, the thermal stability z-score (lipoamide; [1]) was -0.153 and the thermal stability z-score (lipoamide; arsenate co-treatment: none) was -0.393.
Target UQCR10 (UniProt Q9UDW1) has a thermal stability z-score (potassium arsenate) of 0.553, a thermal stability z-score (lipoamide; [1]) of -0.399 and a thermal stability z-score (lipoamide; arsenate co-treatment: none) of 0.0606.
Target PPP1R2 (UniProt P41236) has a thermal stability z-score (potassium arsenate) of 0.183, a thermal stability z-score (lipoamide; [1]) of 0.658 and a thermal stability z-score (lipoamide; arsenate co-treatment: none) of 0.619.
For PDE8B (UniProt O95263), the thermal stability z-score (potassium arsenate) was 0.228, the thermal stability z-score (lipoamide; [1]) was -0.563 and the thermal stability z-score (lipoamide; arsenate co-treatment: none) was 0.202.
SUPV3L1 (UniProt Q8IYB8) gave a thermal stability z-score (potassium arsenate) of -0.478, a thermal stability z-score (lipoamide; [1]) of -0.171 and a thermal stability z-score (lipoamide; arsenate co-treatment: none) of -0.116.
LMNA (UniProt P02545) showed a thermal stability z-score (potassium arsenate) of -0.488, a thermal stability z-score (lipoamide; [1]) of 0.567 and a thermal stability z-score (lipoamide; arsenate co-treatment: none) of 0.493.
CCDC86 (UniProt Q9H6F5) gave a thermal stability z-score (potassium arsenate) of -2.01, a thermal stability z-score (lipoamide; [1]) of -0.342 and a thermal stability z-score (lipoamide; arsenate co-treatment: none) of -0.895.
With UACA (UniProt Q9BZF9) the thermal stability z-score (potassium arsenate) was 0.02, the thermal stability z-score (lipoamide; [1]) was -0.163 and the thermal stability z-score (lipoamide; arsenate co-treatment: none) was -0.0805.
Target OGFOD1 (UniProt Q8N543) has a thermal stability z-score (potassium arsenate) of 1.04, a thermal stability z-score (lipoamide; [1]) of 0.312 and a thermal stability z-score (lipoamide; arsenate co-treatment: none) of -0.342.
WDR81 (UniProt Q562E7) showed a thermal stability z-score (potassium arsenate) of 0.105, a thermal stability z-score (lipoamide; [1]) of -0.0547 and a thermal stability z-score (lipoamide; arsenate co-treatment: none) of -0.0815.
Target ACAA1 (UniProt P09110) has a thermal stability z-score (potassium arsenate) of 0.919, a thermal stability z-score (lipoamide; [1]) of -0.181 and a thermal stability z-score (lipoamide; arsenate co-treatment: none) of 0.335.
ACOT13 (UniProt Q9NPJ3) showed a thermal stability z-score (potassium arsenate) of -0.202, a thermal stability z-score (lipoamide; [1]) of -0.279 and a thermal stability z-score (lipoamide; arsenate co-treatment: none) of -0.198.
With SNX1 (UniProt Q13596) the thermal stability z-score (potassium arsenate) was 0.327, the thermal stability z-score (lipoamide; [1]) was 0.0174 and the thermal stability z-score (lipoamide; arsenate co-treatment: none) was -0.29.
AACS (UniProt Q86V21) was tested, and the thermal stability z-score (potassium arsenate) was 0.635, the thermal stability z-score (lipoamide; [1]) was -0.257 and the thermal stability z-score (lipoamide; arsenate co-treatment: none) was -0.135.
With ACAP2 (UniProt Q15057) the thermal stability z-score (potassium arsenate) was -0.178, the thermal stability z-score (lipoamide; [1]) was -0.177 and the thermal stability z-score (lipoamide; arsenate co-treatment: none) was 0.0236.
With MRPL55 (UniProt Q7Z7F7) the thermal stability z-score (potassium arsenate) was -0.38, the thermal stability z-score (lipoamide; [1]) was 0.0563 and the thermal stability z-score (lipoamide; arsenate co-treatment: none) was 0.0521.
In the case of NARFL (UniProt Q9H6Q4), the thermal stability z-score (potassium arsenate) is reported as -0.0417, the thermal stability z-score (lipoamide; [1]) is reported as 0.327 and the thermal stability z-score (lipoamide; arsenate co-treatment: none) is reported as 0.0715.
For SMARCA2 (UniProt P51531), the thermal stability z-score (potassium arsenate) was -0.174, the thermal stability z-score (lipoamide; [1]) was -0.0738 and the thermal stability z-score (lipoamide; arsenate co-treatment: none) was -0.0901.
For PSMA2 (UniProt P25787), the thermal stability z-score (potassium arsenate) was -0.132, the thermal stability z-score (lipoamide; [1]) was 0.38 and the thermal stability z-score (lipoamide; arsenate co-treatment: none) was 0.455.
RICTOR (UniProt Q6R327) gave a thermal stability z-score (potassium arsenate) of 0.166, a thermal stability z-score (lipoamide; [1]) of -1.23 and a thermal stability z-score (lipoamide; arsenate co-treatment: none) of -0.161.
Work on NAPRT (UniProt Q6XQN6) yielded a thermal stability z-score (potassium arsenate) of -0.197, a thermal stability z-score (lipoamide; [1]) of -0.379 and a thermal stability z-score (lipoamide; arsenate co-treatment: none) of -0.0584.
